These results are taken from patent publication US11351178B2, “Selective HDAC6 inhibitors” (ITALFARMACO S.P.A., priority 2017, dated 2022).

The target of one series is T1, recombinant human HDAC6 (Homo sapiens, UniProt Q9UBN7).
T1 sequence (Q9UBN7 1-1215): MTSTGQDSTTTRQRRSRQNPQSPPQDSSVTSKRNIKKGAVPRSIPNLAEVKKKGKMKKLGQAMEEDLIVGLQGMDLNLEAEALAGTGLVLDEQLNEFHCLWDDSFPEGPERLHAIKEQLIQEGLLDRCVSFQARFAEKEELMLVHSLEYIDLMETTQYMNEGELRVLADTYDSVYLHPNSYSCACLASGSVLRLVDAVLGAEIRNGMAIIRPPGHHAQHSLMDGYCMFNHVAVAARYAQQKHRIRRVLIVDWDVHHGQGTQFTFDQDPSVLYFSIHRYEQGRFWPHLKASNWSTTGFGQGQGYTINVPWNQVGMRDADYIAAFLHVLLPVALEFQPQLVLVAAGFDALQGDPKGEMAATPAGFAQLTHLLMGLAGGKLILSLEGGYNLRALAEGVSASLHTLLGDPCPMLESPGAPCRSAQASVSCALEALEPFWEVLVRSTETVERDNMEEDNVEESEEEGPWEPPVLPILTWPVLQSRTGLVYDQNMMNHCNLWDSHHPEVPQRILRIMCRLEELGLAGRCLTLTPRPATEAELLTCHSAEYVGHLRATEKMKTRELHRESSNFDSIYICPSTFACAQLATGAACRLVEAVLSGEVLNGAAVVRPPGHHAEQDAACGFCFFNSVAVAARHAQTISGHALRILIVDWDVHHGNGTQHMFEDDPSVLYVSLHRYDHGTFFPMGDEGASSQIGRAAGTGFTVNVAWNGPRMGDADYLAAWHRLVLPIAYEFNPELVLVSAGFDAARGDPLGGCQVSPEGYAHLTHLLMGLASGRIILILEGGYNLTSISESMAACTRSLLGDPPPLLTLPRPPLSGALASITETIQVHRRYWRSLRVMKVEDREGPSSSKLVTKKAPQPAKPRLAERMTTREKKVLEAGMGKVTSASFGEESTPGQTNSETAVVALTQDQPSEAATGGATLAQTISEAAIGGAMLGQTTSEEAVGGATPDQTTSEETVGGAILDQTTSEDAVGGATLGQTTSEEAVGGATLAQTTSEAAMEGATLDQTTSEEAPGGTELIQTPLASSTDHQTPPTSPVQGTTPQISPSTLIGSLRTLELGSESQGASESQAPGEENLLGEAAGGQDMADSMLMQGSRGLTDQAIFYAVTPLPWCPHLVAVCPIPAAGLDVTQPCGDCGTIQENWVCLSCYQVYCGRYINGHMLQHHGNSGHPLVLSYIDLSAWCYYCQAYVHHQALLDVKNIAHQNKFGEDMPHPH
The series can be described thus: Enzymatic screening on recombinant human HDAC6. The series is classed as biochemical. The settings on record: Table 2; read-out: HDAC6 IC50. How it is done:
Enzymatic activity on recombinant human HDAC6 and HDAC3 was evaluated (Table 2) for each synthesized compound.
After a period of incubation at 30° C. (incubation times vary for different isoforms and are shown in table 1) 25 μL of solution containing the substrate were added. As substrate, FLUOR DE LYS® deacetylase substrate (Enzo Life Sciences, cat #BML-K1104, FdL), FLUOR DE LYS®-Green substrate (Enzo Life Sciences, cat #BML-K1572 FdL_G) and trifluoroacetyl-L-lysine (Tfal)-2× concentrated solution in 25 mM Tris-HCl, pH 8, 130 mM NaCl 0.05% Tween-20 10% glycerol) were used. Following a reaction period at 30° C.

The nature of series [1]: Stability to Phase I metabolism in rat S9 liver fraction. The series is classed as in vitro ADME. The note with it: after 90 min, 37° C. How it is done:
Test compounds were incubated in rat and human liver S9 fraction at 37° C. up to 90 minutes in order to evaluate their stability to Phase I metabolism by hepatic enzymes. […] The reaction was stopped placing samples on ice bath and adding acidified acetonitrile. After centrifugation (10 minutes at 14000 rpm) an aliquot of the supernatant was diluted water, filtered with 0.45 μm regenerated cellulose syringe filters and injected in HPLC-UV or in LC-MS/MS. The percentages of the amount remaining at the various incubation times with respect to the initial amount were calculated. The intrinsic clearance was also calculated.

The term IC50 denotes the concentration that gives 50% inhibition. On to `O=C(NO)c1ccc(Cn2nnc(-c3csc4ccccc34)n2)cc1` [comp. 42, 4-[[5-(benzothiophen-3-yl)tetrazol-2-yl]methyl]benzenecarbohydroxamic acid], for which the IC50 on recombinant human HDAC6 was determined as 5 nM. In addition, the “residual percentage in rat S9 fraction” value in series [1] was 16%.

Consider `O=C(NO)c1ccc(Cn2nnc(-c3cc4ccccc4s3)n2)cc1` [comp. 55, 4-[[5-(benzothiophen-2-yl)tetrazol-2-yl]methyl]benzenecarbohydroxamic acid], for which the IC50 on recombinant human HDAC6 amounted to 6 nM. In addition, the “residual percentage in rat S9 fraction” value in series [1] is 46%.

As for `O=C(NO)c1ccc(Cn2nnc(-c3ccc(Cl)cc3Cl)n2)cc1` [comp. 38, 4-[[5-(2,4-dichlorophenyl)tetrazol-2-yl]methyl]benzenecarbohydroxamic acid], at recombinant human HDAC6, the IC50 was 10 nM. In series [1], the “residual percentage in rat S9 fraction” value was 1%.

`O=C(NO)c1cc(F)c(Sc2nnc(-c3ccc(F)cc3)n2CCN2CCOCC2)c(F)c1` [comp. 138, 3,5-difluoro-4-[[5-(4-fluorophenyl)-4-(2-morpholinoethyl)-1,2,4-triazol-3-yl]sulfanyl]benzenecarbohydroxamic acid]: the 50% inhibitory concentration (IC50) at recombinant human HDAC6 is 12 nM. Also, the “residual percentage in rat S9 fraction” value in series [1] amounted to 79%.

As for `COc1ccc(CCC(=O)N[C@@H](Cc2cscn2)c2nc(Cc3ccc(C(=O)NO)cc3)no2)cc1OC` [comp. 21, 3-(3,4-dimethoxyphenyl)-N-[(1S)-1-[3-[[4-(hydroxycarbamoyl)phenyl]methyl]-1,2,4-oxadiazol-5-yl]-2-thiazol-4-yl-ethyl]propanamide], at recombinant human HDAC6, the IC50 came to 116 nM.

As to `CSc1sc(-c2nnn(Cc3ccc(C(=O)NO)cc3)n2)c2c1C(=O)CC(C)(C)C2` [comp. 54, 4-[[5-(6,6-dimethyl-3-methylsulfanyl-4-oxo-5,7-dihydro-2-benzothiophen-1-yl)tetrazol-2-yl]methyl]benzenecarbohydroxamic acid], the IC50 at recombinant human HDAC6 was 18 nM. For the same compound, in series [1], the “residual percentage in rat S9 fraction” value is reported as 0%.

`Cn1c(Sc2c(F)cc(C(=O)NO)cc2F)nnc1-c1ccc(CN2CCCC2)o1` [comp. 207, 3,5-difluoro-4-[[4-methyl-5-[5-(pyrrolidin-1-ylmethyl)-2-furyl]-1,2,4-triazol-3-yl]sulfanyl]benzenecarbohydroxamic acid]: the half-maximal inhibitory concentration (IC50) on recombinant human HDAC6 stood at 7 nM.

On to `O=C(NO)c1cc(F)c(Cn2nnc(-c3ccc(S(F)(F)(F)(F)F)cc3)n2)c(F)c1` [comp. 112, 3,5-difluoro-4-[[5-[4-(pentafluoro-lambda6-sulfanyl)phenyl]tetrazol-2-yl]methyl]benzenecarbohydroxamic acid], for which, on recombinant human HDAC6, the IC50 was 123 nM.

For the compound `O=C(NO)c1ccc(Cn2nnnc2-c2ccc(S(F)(F)(F)(F)F)cc2)cc1` [comp. 111, 4-[[5-[4-(pentafluoro-lambda6-sulfanyl)phenyl]tetrazol-1-yl]methyl]benzenecarbohydroxamic acid], at recombinant human HDAC6, the half-maximal inhibitory concentration (IC50) amounted to 271 nM.

Consider `Cn1c(Sc2c(F)cc(C(=O)NO)cc2F)nnc1-c1cccc(N2CC[N+](C)([O-])CC2)c1` [comp. 114, 3,5-difluoro-4-[[4-methyl-5-[3-(4-methyl-4-oxido-piperazin-4-ium-1-yl)phenyl]-1,2,4-triazol-3-yl]sulfanyl]benzenecarbohydroxamic acid], for which, on recombinant human HDAC6, the 50% inhibitory concentration (IC50) is 256 nM.

`O=C(NO)c1cc(F)c(Cn2nnnc2-c2ccc(S(F)(F)(F)(F)F)cc2)c(F)c1` [comp. 113, 3,5-difluoro-4-[[5-[4-(pentafluoro-lambda6-sulfanyl)phenyl]tetrazol-1-yl]methyl]benzenecarbohydroxamic acid]: the half-inhibitory concentration (IC50) on recombinant human HDAC6 was 158 nM.

With `O=C(NO)c1ccc(Cn2nnnc2-c2cccc(S(F)(F)(F)(F)F)c2)cc1` [comp. 107, 4-[[5-[3-(pentafluoro-lambda6-sulfanyl)phenyl]tetrazol-1-yl]methyl]benzenecarbohydroxamic acid], the concentration for half-maximal inhibition (IC50) at recombinant human HDAC6 was found to be 162 nM.

For `COc1ccc(C2(c3nnc(Sc4c(F)cc(C(=O)NO)cc4F)n3C)CC2)cc1` [compound 104, 3,5-difluoro-4-[[5-[1-(4-methoxyphenyl)cyclopropyl]-4-methyl-1,2,4-triazol-3-yl]sulfanyl]benzenecarbohydroxamic acid], on recombinant human HDAC6, the IC50 turned out to be 48 nM.

With `O=C(NO)c1cc(F)c(Cc2noc(-c3ccc(CN4CCCC4)o3)n2)c(F)c1` [compound 202, 3,5-difluoro-4-[[5-[5-(pyrrolidin-1-ylmethyl)-2-furyl]-1,2,4-oxadiazol-3-yl]methyl]benzenecarbohydroxamic acid], the concentration for half-maximal inhibition (IC50) at recombinant human HDAC6 is 9 nM.

Take `O=C(NO)c1ccc(Cn2nnnc2-c2ccc(C(F)(F)F)cn2)cc1` [comp. 127, 4-[[5-[5-(trifluoromethyl)-2-pyridyl]tetrazol-1-yl]methyl]benzenecarbohydroxamic acid]: on recombinant human HDAC6, the IC50 is 9 nM.

Take `Cn1c(Sc2c(F)cc(C(=O)NO)cc2F)nnc1-c1cc(-c2cccs2)n(-c2ccccc2)n1` [comp. 136, 3,5-difluoro-4-[[4-methyl-5-[1-phenyl-5-(2-thienyl)pyrazol-3-yl]-1,2,4-triazol-3-yl]sulfanyl]benzenecarbohydroxamic acid]: on recombinant human HDAC6, the half-maximal inhibitory concentration (IC50) was 40 nM.

As for `COc1ccccc1-n1nc(-c2cccs2)nc1Cc1ccc(C(=O)NO)cc1` [comp. 53, 4-[[2-(2-methoxyphenyl)-5-(2-thienyl)-1,2,4-triazol-3-yl]methyl]benzenecarbohydroxamic acid], the IC50 on recombinant human HDAC6 stood at 333 nM.

Regarding `O=C(NO)c1ccc(Cn2nnc(-c3cccc(S(F)(F)(F)(F)F)c3)n2)cc1` [comp. 106, 4-[[5-[3-(pentafluoro-lambda6-sulfanyl)phenyl]tetrazol-2-yl]methyl]benzenecarbohydroxamic acid], the 50% inhibitory concentration (IC50) at recombinant human HDAC6 turned out to be 26 nM.

As to `O=C(NO)c1cc(F)c(Sc2nnc(-c3cccs3)n2Cc2ccco2)c(F)c1` [comp. 144, 3,5-difluoro-4-[[4-(2-furylmethyl)-5-(2-thienyl)-1,2,4-triazol-3-yl]sulfanyl]benzenecarbohydroxamic acid], the IC50 at recombinant human HDAC6 is 12 nM.

On to `O=C(NO)c1ccc(Cn2nnc(-c3ccccc3F)n2)cc1` [comp. 46, 4-[[5-(2-fluorophenyl)tetrazol-2-yl]methyl]benzenecarbohydroxamic acid], for which the IC50 on recombinant human HDAC6 was found to be 5 nM.

With `O=C(NO)c1ccc(Cc2nc(-c3cccs3)nn2-c2ccccn2)cc1` [comp. 52, 4-[[2-(2-pyridyl)-5-(2-thienyl)-1,2,4-triazol-3-yl]methyl]benzenecarbohydroxamic acid], on recombinant human HDAC6, the concentration for half-maximal inhibition (IC50) was determined as 344 nM.

For `O=C(NO)c1ccc(Cn2nnc(-c3ncc(C(F)(F)F)cc3N3CCOCC3)n2)cc1` [comp. 130, 4-[[5-[3-morpholino-5-(trifluoromethyl)-2-pyridyl]tetrazol-2-yl]methyl]benzenecarbohydroxamic acid], the IC50 at recombinant human HDAC6 came out at 837 nM.
